pIC50: −log10 of the molar value.

In ChEMBL document CHEMBL4340552, “Identification of BMI1 promoter inhibitors from Streptomyces sp. IFM-11958” (Bioorg Med Chem, 2019) one finds inhibition, Activity and IC50 data, which are given here for three compounds.

The test system of assay [1] is DU-145. Kind of assay: Down-regulation of c-Myc protein expression in human DU145 cells incubated for 24 hrs by Western blot analysis. Format: functional, cell-based.
Assay [2] concerns Huh-7. Briefly: Inhibition of sphere formation in human HuH7 cells incubated for 72 hrs by sphere forming assay. Format: functional, cell-based.
In assay [3] the test system is DU-145. Kind of assay: Down-regulation of BMI1 mRNA expression in human DU145 cells incubated for 24 hrs by Quantitative RT-PCR analysis. Format: functional, cell-based.
The test system of assay [4] is DU-145. Kind of assay: Up-regulation of p16Ink4a mRNA expression in human DU145 cells incubated for 24 hrs by Quantitative RT-PCR analysis. Format: functional, cell-based.
The subject of assay [5] is Huh-7. Briefly: Cytotoxicity against human HuH7 cells assessed as reduction in cell viability incubated for 24 hrs by FMCA method. Format: functional, cell-based. The note with it: Huh-7, 24 h.
Assay [6] has as its system HEK293. Briefly: Cytotoxicity against HEK293 cells assessed as reduction in cell viability incubated for 24 hrs by FMCA method. Format: cell-based. The note with it: Homo sapiens, HEK293, 24 h.
Assay [7] relates to DU-145. Kind of assay: Cytotoxicity against human DU145 cells assessed as reduction in cell viability incubated for 24 hrs by FMCA method. Format: functional, cell-based. As to conditions: DU-145, 24 h.
Assay [8] is described as follows: Inhibition of BMI1 promoter in HEK293T cells incubated for 24 hrs by luciferase reporter gene assay. Format: cell-based. The note with it: Homo sapiens, HEK-293T. (In general: A reporter such as luciferase makes a cellular process visible.)
In assay [9] the test system is DU-145. Briefly: Down-regulation of BMI1 protein expression in human DU145 cells incubated for 24 hrs by Western blot analysis. Format: functional, cell-based.

In general, pIC50 refers to the IC50 on a negative log10 scale, so that one unit is a factor of ten. For `CC[C@@H]1[C@@H](C)O[C@@](O)([C@@H](C)[C@H](O)[C@H](C)[C@H]2OC(=O)/C=C/C=C/[C@H](C)[C@@H]([C@@H](C)[C@@H](O)[C@H](C)[C@@]3(O)C[C@@H](O[C@H]4C[C@H](O)[C@H](O)[C@H](C)O4)[C@H](CC)[C@@H](C)O3)OC(=O)/C=C/C=C/[C@@H]2C)C[C@H]1O[C@H]1C[C@H](O)[C@H](O)[C@H](C)O1`, the inhibition entry in assay [1], in assay [2] and in assay [9] was “Dose-dependent effect” each time. Moreover, the Activity result in [3] and in assay [4] was “Dose-dependent effect” throughout. Also, the pIC50 in assay [5] is 8.38; in assay [6], 6.70; in assay [7], 7.51; in assay [8] it was 7.52.
As for `O=C1CCC(=O)N(O)CCCCCNC(=O)CCC(=O)N(O)CCCCCNC(=O)CCC(=O)N(O)CCCCCN1` [NOCARDAMINE], in assay [8], the pIC50 is 4.66.
In assay [8], `CC[C@@H]1[C@@H](C)O[C@@](O)([C@@H](C)[C@H](O)[C@H](C)[C@H]2OC(=O)/C=C/C=C/[C@H](C)[C@@H]([C@@H](C)[C@@H](O)[C@H](C)[C@@]3(O)C[C@@H](O[C@H]4C[C@H](O)[C@H](O)[C@H](C)O4)[C@H](CC)[C@@H](C)O3)OC(=O)/C(C)=C/C=C/[C@@H]2C)C[C@H]1O[C@H]1C[C@H](O)[C@H](O)[C@H](C)O1` showed a pIC50 of 6.35.
